Source: ChEMBL document CHEMBL1201862, “PubChem BioAssay data set” (2004)
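Protocol summary: plate cells (96-well), add compound at 5 concentrations, incubate 48 h, interpolate endpoints linearly. GI50: concentration for 50% inhibition of growth.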 Activity calls are given as the source filed them. Rule as the data show it: active = GI50 up to about 1.1 µM and inactive = higher.

How the values were obtained:
Assay in all cases: NCI anticancer screen, dose series, 48 h
SK-OV-3 = test system: SK-OV-3
T47D = test system: T47D
MDA-MB-231 = test system: MDA-MB-231
SF-268 = test system: SF-268
PC-3 = test system: PC-3
MCF7 = test system: MCF7
HCT-116 = test system: HCT-116
M14 = test system: M14
NCI/ADR-RES = test system: NCI/ADR-RES
MDA-N = test system: MDA-N
U-251 = test system: U-251
SK-MEL-5 = test system: SK-MEL-5
HL-60 = test system: HL-60
Malme-3M = test system: Malme-3M
NCI-H522 = test system: NCI-H522
UACC-257 = test system: UACC-257
UO-31 = test system: UO-31
OVCAR-4 = test system: OVCAR-4
SF-539 = test system: SF-539
DU-145 = test system: DU-145

Compound | GI50 (SK-OV-3) | GI50 (T47D) | GI50 (MDA-MB-231) | GI50 (SF-268) | GI50 (PC-3) | GI50 (MCF7) | GI50 (HCT-116) | GI50 (M14) | GI50 (NCI/ADR-RES) | GI50 (MDA-N) | GI50 (U-251) | GI50 (SK-MEL-5) | GI50 (HL-60) | GI50 (Malme-3M) | GI50 (NCI-H522) | GI50 (UACC-257) | GI50 (UO-31) | GI50 (OVCAR-4) | GI50 (SF-539) | GI50 (DU-145)
O=C(NCCCNCCNC(=O)c1cc(-c2ccccc2)nc2ccccc12)c1cc(-c2ccccc2)nc2ccccc12 | 3.27 µM (inactive) | 1.91 µM (inactive) | 1.86 µM (inactive) | 2.1 µM (inactive) | 1.68 µM (inactive) | 1.68 µM (inactive) | 1.68 µM (inactive) | 2.24 µM (inactive) | 2.05 µM (inactive) | 1.87 µM (inactive) | 1.85 µM (inactive) | 1.64 µM (inactive) | 1.59 µM (inactive) | 1.88 µM (inactive) | 1.75 µM (inactive) | 1.67 µM (inactive) | 1.86 µM (inactive) | 2.13 µM (inactive) | 1.82 µM (inactive) | –
CS/C(=N\S(=O)(=O)c1ccc(Cl)cc1)NCCCCN/C(=N/S(=O)(=O)c1ccc(Cl)cc1)SC | – | > 100 µM (inactive) | > 100 µM (inactive) | 32.5 µM (inactive) | > 100 µM (inactive) | > 100 µM (inactive) | > 100 µM (inactive) | > 100 µM (inactive) | > 100 µM (inactive) | > 100 µM (inactive) | 69.5 µM (inactive) | – | > 100 µM (inactive) | > 100 µM (inactive) | – | > 100 µM (inactive) | > 100 µM (inactive) | > 100 µM (inactive) | > 100 µM (inactive) | > 100 µM (inactive)
Nc1nc(N)c2nc(CNc3ccc(C(=O)NC(CCC(=O)O)C(=O)O)cc3F)cnc2n1 (configuration not stated) | > 100 µM (inactive) | < 0.01 µM (active) | > 57.9 µM (inactive) | < 0.01 µM (active) | – | < 0.01 µM (active) | < 0.01 µM (active) | < 0.01 µM (active) | < 0.01 µM (active) | < 0.01 µM (active) | < 0.01 µM (active) | < 0.0128 µM (active) | < 0.01 µM (active) | – | < 0.01 µM (active) | > 100 µM (inactive) | < 0.01 µM (active) | > 81.7 µM (inactive) | < 0.01 µM (active) | < 0.01 µM (active)
CCOC(=O)CCC(NC(=O)c1ccc(Nc2nc3ccccc3nc2C(=O)OCC)cc1)C(=O)OCC (configuration not stated) | 2.47 µM (inactive) | 2.18 µM (inactive) | 9.62 µM (inactive) | 7.71 µM (inactive) | 16.9 µM (inactive) | 11.3 µM (inactive) | 2.95 µM (inactive) | 8.89 µM (inactive) | 5.46 µM (inactive) | 3.89 µM (inactive) | 3.12 µM (inactive) | 27.8 µM (inactive) | > 100 µM (inactive) | 6.67 µM (inactive) | 3.3 µM (inactive) | 18.9 µM (inactive) | 4.28 µM (inactive) | 1.61 µM (inactive) | 2.48 µM (inactive) | –
CC1C2(C)OCC(C#N)(C(=N)O2)C1(C#N)C#N (configuration not stated) | > 100 µM (inactive) | 12.6 µM (inactive) | 17.9 µM (inactive) | 22.8 µM (inactive) | 24.2 µM (inactive) | 20.7 µM (inactive) | 18.3 µM (inactive) | 16.1 µM (inactive) | 41.2 µM (inactive) | 18.3 µM (inactive) | 16.3 µM (inactive) | 11.3 µM (inactive) | 15.6 µM (inactive) | 18.5 µM (inactive) | – | 23.9 µM (inactive) | 36.2 µM (inactive) | – | 23.1 µM (inactive) | 22.5 µM (inactive)
CCOP(=O)(Nc1ccc(-c2ccccc2)cc1)OCC | > 100 µM (inactive) | – | > 100 µM (inactive) | 74.6 µM (inactive) | 86.5 µM (inactive) | > 100 µM (inactive) | > 100 µM (inactive) | > 100 µM (inactive) | > 100 µM (inactive) | 88.9 µM (inactive) | > 100 µM (inactive) | 90.2 µM (inactive) | – | > 100 µM (inactive) | 33.8 µM (inactive) | > 100 µM (inactive) | 57.9 µM (inactive) | 96.4 µM (inactive) | – | > 100 µM (inactive)
Oc1ccc(-c2ccccc2)nn1 | – | > 100 µM (inactive) | > 100 µM (inactive) | > 100 µM (inactive) | > 100 µM (inactive) | – | > 100 µM (inactive) | > 100 µM (inactive) | > 100 µM (inactive) | > 100 µM (inactive) | > 100 µM (inactive) | > 100 µM (inactive) | > 100 µM (inactive) | > 100 µM (inactive) | > 100 µM (inactive) | > 100 µM (inactive) | > 100 µM (inactive) | > 100 µM (inactive) | – | > 100 µM (inactive)
Cc1ccc(NC(=O)/C(Cc2nc3ccc([N+](=O)[O-])cc3nc2O)=N\NC(=O)C[n+]2ccccc2)c(C)c1 | 22.4 µM (inactive) | – | 18.4 µM (inactive) | 67.5 µM (inactive) | 39 µM (inactive) | 38.5 µM (inactive) | 36.2 µM (inactive) | 89.1 µM (inactive) | 40.9 µM (inactive) | > 100 µM (inactive) | 53.6 µM (inactive) | 16.9 µM (inactive) | 30 µM (inactive) | – | 19.4 µM (inactive) | 49.4 µM (inactive) | 18.4 µM (inactive) | 23 µM (inactive) | 77.1 µM (inactive) | 32.1 µM (inactive)
Cc1ccc(S(=O)(=O)N2CCSCCSCCSCCN(S(=O)(=O)c3ccc(C)cc3)CC2)cc1 | > 100 µM (inactive) | > 100 µM (inactive) | > 100 µM (inactive) | > 100 µM (inactive) | – | > 100 µM (inactive) | > 100 µM (inactive) | > 100 µM (inactive) | > 100 µM (inactive) | > 100 µM (inactive) | > 100 µM (inactive) | > 100 µM (inactive) | > 100 µM (inactive) | – | – | > 100 µM (inactive) | > 100 µM (inactive) | > 100 µM (inactive) | > 100 µM (inactive) | > 100 µM (inactive)
COC(=O)C(=O)CC(=O)c1cccc(OC)c1 | > 100 µM (inactive) | > 100 µM (inactive) | > 100 µM (inactive) | > 100 µM (inactive) | > 100 µM (inactive) | > 100 µM (inactive) | > 100 µM (inactive) | > 100 µM (inactive) | > 100 µM (inactive) | 5.66 µM (inactive) | > 100 µM (inactive) | > 100 µM (inactive) | > 100 µM (inactive) | > 100 µM (inactive) | – | > 100 µM (inactive) | > 100 µM (inactive) | > 100 µM (inactive) | > 100 µM (inactive) | > 100 µM (inactive)
Cc1nnc(N)nc1/C=C\c1ccc(N(C)C)cc1 | > 29.4 µM (inactive) | > 24.6 µM (inactive) | – | > 34.2 µM (inactive) | 30.7 µM (inactive) | 3.85 µM (inactive) | 10.8 µM (inactive) | 27 µM (inactive) | 12.4 µM (inactive) | 17.4 µM (inactive) | > 27.1 µM (inactive) | 18.5 µM (inactive) | 3.32 µM (inactive) | 29.2 µM (inactive) | 1.68 µM (inactive) | 22.5 µM (inactive) | 3.18 µM (inactive) | 26.5 µM (inactive) | – | > 66.2 µM (inactive)
Cc1csc2nc3c(cnn3C)c(=S)n12 | 61.8 µM (inactive) | > 10 µM (inactive) | > 10 µM (inactive) | > 100 µM (inactive) | > 100 µM (inactive) | > 100 µM (inactive) | > 100 µM (inactive) | > 100 µM (inactive) | > 100 µM (inactive) | > 100 µM (inactive) | 95.3 µM (inactive) | > 100 µM (inactive) | – | > 100 µM (inactive) | 11 µM (inactive) | > 100 µM (inactive) | 33.5 µM (inactive) | > 100 µM (inactive) | > 100 µM (inactive) | –
O/N=C1\CC2(N3CCOCC3)CCC1(c1ccccc1)CC2 | > 100 µM (inactive) | > 100 µM (inactive) | – | > 100 µM (inactive) | > 100 µM (inactive) | > 100 µM (inactive) | > 100 µM (inactive) | > 100 µM (inactive) | > 100 µM (inactive) | > 100 µM (inactive) | > 100 µM (inactive) | > 100 µM (inactive) | > 100 µM (inactive) | > 100 µM (inactive) | > 100 µM (inactive) | > 100 µM (inactive) | > 100 µM (inactive) | > 100 µM (inactive) | > 100 µM (inactive) | > 100 µM (inactive)
COC(=O)c1ccccc1C1CN=NC12Cc1cccc(C)c1C2=O (configuration not stated) | > 100 µM (inactive) | 16.6 µM (inactive) | > 100 µM (inactive) | 61.4 µM (inactive) | – | 43 µM (inactive) | 37.4 µM (inactive) | – | 9.84 µM (inactive) | 46.7 µM (inactive) | 56 µM (inactive) | 34.4 µM (inactive) | 24.7 µM (inactive) | 43.7 µM (inactive) | 27.3 µM (inactive) | 37.3 µM (inactive) | 20.8 µM (inactive) | 33 µM (inactive) | > 100 µM (inactive) | > 100 µM (inactive)
COc1ccc(CCCNC(=O)Cc2cc(OC)c(OC)cc2CO)cc1OC | – | 23.3 µM (inactive) | > 100 µM (inactive) | – | > 100 µM (inactive) | – | > 100 µM (inactive) | > 100 µM (inactive) | > 100 µM (inactive) | > 100 µM (inactive) | > 100 µM (inactive) | > 100 µM (inactive) | > 100 µM (inactive) | > 100 µM (inactive) | – | > 100 µM (inactive) | > 100 µM (inactive) | > 100 µM (inactive) | – | > 100 µM (inactive)
